Assay results: patent US20090257979A1, “Novel Inhibitors of Hepatitis C Virus Replication” (INTERMUNE, INC., priority 2008, published 2009)
pEC50: −log10 of the molar value.

Experiments:
HCV Replicon = HCV Replicon inhibition; type: cell-based; conditions: Hepatitis C virus
NS5B polymerase protein = biological target: T1, NS5B polymerase protein (Hepatitis C virus genotype 1a, UniProt P27958); experiment: biochemical; conditions: pre-incubated 37° C. 30 minutes; RdRp reaction 90 minutes at 37° C.; read-out: HCV NS5B inhibition EC50
T1 construct: pre-incubated with the RNA template and NS5B polymerase protein; Replizyme
T1 sequence (P27958 2421-3011): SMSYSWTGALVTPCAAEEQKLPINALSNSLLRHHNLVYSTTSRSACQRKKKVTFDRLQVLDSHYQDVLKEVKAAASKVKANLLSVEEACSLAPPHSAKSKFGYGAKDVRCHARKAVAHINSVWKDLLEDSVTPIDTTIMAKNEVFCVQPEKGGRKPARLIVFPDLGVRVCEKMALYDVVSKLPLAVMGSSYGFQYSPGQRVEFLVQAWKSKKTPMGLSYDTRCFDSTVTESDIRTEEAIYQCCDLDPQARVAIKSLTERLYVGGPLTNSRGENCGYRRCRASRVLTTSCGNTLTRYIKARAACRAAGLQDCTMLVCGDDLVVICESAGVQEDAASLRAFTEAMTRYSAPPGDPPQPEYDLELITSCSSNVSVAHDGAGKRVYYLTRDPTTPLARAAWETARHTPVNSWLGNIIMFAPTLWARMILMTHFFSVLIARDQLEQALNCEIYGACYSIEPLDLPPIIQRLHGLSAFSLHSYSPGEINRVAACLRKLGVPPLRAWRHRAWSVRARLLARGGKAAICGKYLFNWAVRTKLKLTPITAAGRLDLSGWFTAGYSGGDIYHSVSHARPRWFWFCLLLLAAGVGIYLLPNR
Protocol: The compounds were tested in the Replizyme HCV heterotemplate radioactive RNA-dependent RNA-polymerase (RdRp) assay. The test compounds were pre-incubated with the RNA template and NS5B polymerase protein at 37° C. for 30 minutes. The RdRp reaction was initiated with the addition of the NTPs to the buffer-NS5B-compound mix, and was allowed to proceed for 90 minutes at 37° C. Control reactions included: no enzyme, 5% DMSO (test compound solvent), no compound/solvent, Cordycepin-TP and HCV-796 (IC50 values used as a reference inhibition). Radioactive products were collected by applying the stopped reaction to DE-81 paper, air dried prior to washing with buffer comprising NaH2PO4 and sodium pyrophosphate to remove unincorporated ^32P-GTP in the NTP mix, and rinsed with dH2O followed by 100% ethanol. The DE-81 paper was air dried, squares cut out and placed in scintillation tubes for counting.

CC(C)CCc1c(=O)c(C2=NS(=O)(=O)c3cc(NS(C)(=O)=O)ccc3N2)c(O)n2ccccc12 [Compound 225]
pEC50 (HCV Replicon): > 7.00
pEC50 (NS5B polymerase protein): > 7.00

CC(C)CCc1c(=O)c(C2=NS(=O)(=O)c3cc(NS(=O)(=O)C4CC4)ccc3N2)c(O)n2ccccc12 [Compound 226]
pEC50 (HCV Replicon): > 7.00
pEC50 (NS5B polymerase protein): > 7.00

CC(C)CCn1nc(C2=NS(=O)(=O)c3cc(NS(C)(=O)=O)ccc3N2)c2ccccc21 [Compound 204]
pEC50 (HCV Replicon): 4.30 to 5.00
pEC50 (NS5B polymerase protein): 6.00 to 7.00

CC(C)CCn1c(=O)c(C2=NS(=O)(=O)c3cc(NS(C)(=O)=O)ccc3N2)c(O)n2ccnc12 [Compound 222, N-{3-[5-Hydroxy-8-(3-methyl-butyl)-7-oxo-7,8-dihydro-imidazo[1,2-a]pyrimidin-6-yl]-1,1-dioxo-1,4-dihydro-1lambda*6*-benzo[1,2,4]thiadiazin-7-yl}-methanesulfonamide]
pEC50 (HCV Replicon): 6.00 to 7.00
pEC50 (NS5B polymerase protein): > 7.00

CC(C)CCn1nc(C2=NS(=O)(=O)c3ccccc3N2)c2ccccc21 [Compound 202]
pEC50 (HCV Replicon): 4.30 to 5.00
pEC50 (NS5B polymerase protein): 4.30 to 5.00

CC(C)CCn1c(=O)c(C2=NS(=O)(=O)c3cc(NS(C)(=O)=O)ccc3N2)c(O)n2nc(C3CC3)cc12 [Compound 234, N-{3-[2-cyclopropyl-7-Hydroxy-4-(3-methyl-butyl)-5-oxo-4,5-dihydro-pyrazolo[1,5-a]pyrimidin-6-yl]-1,1-dioxo-1,4-dihydro-1lambda*6*-benzo[1,2,4]thiadiazin-7-yl}-methanesulfonamide]
pEC50 (HCV Replicon): > 7.00
pEC50 (NS5B polymerase protein): 4.30 to 5.00

CC(C)CCC1(C)C(=O)C(C2=NS(=O)(=O)c3cc(NS(C)(=O)=O)ccc3N2)=C(O)c2cccn21 (stereo not shown) [Compound 214]
pEC50 (HCV Replicon): 6.00 to 7.00
pEC50 (NS5B polymerase protein): > 7.00

CS(=O)(=O)Nc1ccc2c(c1)S(=O)(=O)N=C(c1c(O)n3ccccc3c(Cc3ccc(F)cc3)c1=O)N2 [Compound 228]
pEC50 (HCV Replicon): > 7.00
pEC50 (NS5B polymerase protein): > 7.00

CC(C)CCn1cc(C2=NS(=O)(=O)c3cc(NS(C)(=O)=O)ccc3N2)c2ccccc21 [Compound 203]
pEC50 (HCV Replicon): < 4.30
pEC50 (NS5B polymerase protein): 6.00 to 7.00

CS(=O)(=O)Nc1ccc2c(c1)S(=O)(=O)N=C(c1c(O)n3ccccc3c(Cc3ccc(F)c(F)c3)c1=O)N2 [Compound 236, N-{3-[1-(3,4-Difluoro-benzyl)-4-hydroxy-2-oxo-2H-quinolizin-3-yl]-1,1-dioxo-1,4-dihydro-1lambda′6′-benzo[1,2,4]thiadiazin-7-yl}-methanesulfonamide]
pEC50 (HCV Replicon): > 7.00
pEC50 (NS5B polymerase protein): > 7.00

CC(C)CCc1c(O)c(C2=Nc3ccccc3S(=O)(=O)N2)c(O)c2ccccc12 [Compound 104, 1,3-dihydroxy-2-(1,1-dioxo-2H-(1,2,4)-benzothiadiazin-3-yl)-4-(3-methylbutyl)naphthalene]
pEC50 (HCV Replicon): 5.00 to 6.00
pEC50 (NS5B polymerase protein): 6.00 to 7.00

CS(=O)(=O)Nc1ccc2c(c1)S(=O)(=O)N=C(c1c(O)n3ccccc3c(Cc3ccccc3)c1=O)N2 [Compound 238, N-[3-(1-Benzyl-4-hydroxy-2-oxo-2H-quinolizin-3-yl)-1,1-dioxo-1,4-dihydro-1lambda′6′-benzo[1,2,4]thiadiazin-7-yl]-methanesulfonamide]
pEC50 (HCV Replicon): > 7.00
pEC50 (NS5B polymerase protein): > 7.00

CC(C)CCn1cc(C2=NS(=O)(=O)c3cc(NS(C)(=O)=O)ccc3N2)c2ccc(O)cc21 [Compound 210]
pEC50 (HCV Replicon): 4.30 to 5.00
pEC50 (NS5B polymerase protein): 6.00 to 7.00

CC(C)CCC1(C)C(=O)C(C2=NS(=O)(=O)c3cc(NS(C)(=O)=O)ccc3N2)=C(O)c2nccn21 (stereo not shown) [Compound 215]
pEC50 (NS5B polymerase protein): 5.00 to 6.00

CC(C)CCn1cc(C2=NS(=O)(=O)c3cc(NS(C)(=O)=O)ccc3N2)c2c(O)cccc21 [Compound 209]
pEC50 (HCV Replicon): < 4.30
pEC50 (NS5B polymerase protein): 6.00 to 7.00

CC(C)CCn1cc(C2=NS(=O)(=O)c3ccccc3N2)c2ccccc21 [Compound 201]
pEC50 (HCV Replicon): 4.30 to 5.00
pEC50 (NS5B polymerase protein): 4.30 to 5.00

COc1ccc(Cc2c(=O)c(C3=NS(=O)(=O)c4cc(NS(C)(=O)=O)ccc4N3)c(O)n3ccccc23)cc1 [Compound 245]
pEC50 (HCV Replicon): > 7.00
pEC50 (NS5B polymerase protein): 6.00 to 7.00

CS(=O)(=O)Nc1ccc2c(c1)S(=O)(=O)N=C(c1c(O)n3nccc3n(CCc3ccc(F)cc3)c1=O)N2 [Compound 232, N-(3-{4-[2-(4-Fluoro-phenyl)-ethyl]-7-hydroxy-5-oxo-4,5-dihydro-pyrazolo[1,5-a]pyrimidin-6-yl}-1,1-dioxo-1,4-dihydro-1lambda*6*-benzo[1,2,4]thiadiazin-7-yl)-methanesulfonamide]
pEC50 (HCV Replicon): > 7.00
pEC50 (NS5B polymerase protein): < 4.30

CC(C)CCn1c(=O)c(C2=NS(=O)(=O)c3ccccc3N2)c(O)n2ccnc12 [Compound 221, 6-(1,1-Dioxo-1,4-dihydro-1lambda*6*-benzo[1,2,4]thiadiazin-3-yl)-5-hydroxy-8-(3-methyl-butyl)-8H-imidazo[1,2-a]pyrimidin-7-one]
pEC50 (HCV Replicon): < 4.30
pEC50 (NS5B polymerase protein): 6.00 to 7.00

COc1ccc2c(C3=NS(=O)(=O)c4cc(NS(C)(=O)=O)ccc4N3)cn(CCC(C)C)c2c1 [Compound 206]
pEC50 (HCV Replicon): < 4.30
pEC50 (NS5B polymerase protein): 5.00 to 6.00

CS(=O)(=O)Nc1ccc2c(c1)S(=O)(=O)N=C(c1c(O)n3ccccc3c(Cc3cccs3)c1=O)N2 [Compound 244]
pEC50 (NS5B polymerase protein): > 7.00

CC(C)CCC1(C)C(=O)C(C2=NS(=O)(=O)c3cc(NS(C)(=O)=O)ccc3N2)=C(O)c2ccnn21 (stereo not shown) [Compound 223]
pEC50 (HCV Replicon): 5.00 to 6.00
pEC50 (NS5B polymerase protein): > 7.00

CS(=O)(=O)Nc1ccc2c(c1)S(=O)(=O)N=C(c1c(O)n3nccc3n(Cc3ccccc3)c1=O)N2 [Compound 230, N-[3-(4-Benzyl-7-hydroxy-5-oxo-4,5-dihydro-pyrazolo[1,5-a]pyrimidin-6-yl)-1,1-dioxo-1,4-dihydro-1lambda*6*-benzo[1,2,4]thiadiazin-7-yl]-methanesulfonamide]
pEC50 (HCV Replicon): > 7.00
pEC50 (NS5B polymerase protein): 5.00 to 6.00

CC(C)CCc1c(=O)c(C2=NS(=O)(=O)c3cc(NS(C)(=O)=O)ccc3N2)c(O)n2cc(F)ccc12 [Compound 250]
pEC50 (HCV Replicon): > 7.00
pEC50 (NS5B polymerase protein): > 7.00

CC(C)CCn1c(=O)c(C2=NS(=O)(=O)c3cc(NS(C)(=O)=O)ccc3N2)c(O)n2ncnc12 [Compound 235, N-{3-[7-Hydroxy-4-(3-methyl-butyl)-5-oxo-4,5-dihydro-[1,2,4]triazolo[1,5-a]pyrimidin-6-yl]-1,1-dioxo-1,4-dihydro-1lambda*6*-benzo[1,2,4]thiadiazin-7-yl}-methanesulfonamide]
pEC50 (HCV Replicon): > 7.00
pEC50 (NS5B polymerase protein): 5.00 to 6.00

CC(C)CCn1cc(C2=NS(=O)(=O)c3cc(NS(C)(=O)=O)ccc3N2)c2cc(Br)ccc21 [Compound 212]
pEC50 (HCV Replicon): < 4.30
pEC50 (NS5B polymerase protein): 5.00 to 6.00

Cc1cccc2c(CCC(C)C)c(=O)c(C3=NS(=O)(=O)c4cc(NS(C)(=O)=O)ccc4N3)c(O)n12 [Compound 249]
pEC50 (HCV Replicon): > 7.00
pEC50 (NS5B polymerase protein): 6.00 to 7.00

CC(C)CCn1c(=O)c(C2=NS(=O)(=O)c3cc(NS(C)(=O)=O)ccc3N2)c(O)n2nccc12 [Compound 229, N-{3-[7-Hydroxy-4-(3-methyl-butyl)-5-oxo-4,5-dihydro-pyrazolo[1,5-a]pyrimidin-6-yl]-1,1-dioxo-1,4-dihydro-1lambda*6*-benzo[1,2,4]thiadiazin-7-yl}-methanesulfonamide]
pEC50 (HCV Replicon): > 7.00
pEC50 (NS5B polymerase protein): 6.00 to 7.00

Cc1cc2c(o1)c(C1=NS(=O)(=O)c3cc(NS(C)(=O)=O)ccc3N1)c(=O)n1ccccc21 [Compound 242]
pEC50 (NS5B polymerase protein): 4.30 to 5.00

Cc1ccc2c(CCC(C)C)c(=O)c(C3=NS(=O)(=O)c4cc(NS(C)(=O)=O)ccc4N3)c(O)n2c1 [Compound 252]
pEC50 (HCV Replicon): > 7.00
pEC50 (NS5B polymerase protein): > 7.00

CC(C)CCn1cc(C2=NS(=O)(=O)c3cc(NS(C)(=O)=O)ccc3N2)c2cc(Cl)ccc21 [Compound 207]
pEC50 (HCV Replicon): < 4.30
pEC50 (NS5B polymerase protein): 5.00 to 6.00

CC(C)(C)CCc1c(=O)c(C2=NS(=O)(=O)c3cc(NS(C)(=O)=O)ccc3N2)c(O)n2ccccc12 [Compound 227]
pEC50 (HCV Replicon): > 7.00
pEC50 (NS5B polymerase protein): > 7.00

COc1cccc2c1c(C1=NS(=O)(=O)c3cc(NS(C)(=O)=O)ccc3N1)cn2CCC(C)C [Compound 205]
pEC50 (HCV Replicon): 4.30 to 5.00
pEC50 (NS5B polymerase protein): 4.30 to 5.00

CC(C)CCn1cc(C2=NS(=O)(=O)c3cc(NS(C)(=O)=O)ccc3N2)c2ccc(C(C)C)cc21 [Compound 211]
pEC50 (HCV Replicon): 4.30 to 5.00
pEC50 (NS5B polymerase protein): 5.00 to 6.00

Cc1cc2n(CCC(C)C)c(=O)c(C3=NS(=O)(=O)c4cc(NS(C)(=O)=O)ccc4N3)c(O)n2n1 [Compound 233, N-{3-[7-Hydroxy-2-methyl-4-(3-methyl-butyl)-5-oxo-4,5-dihydro-pyrazolo[1,5-a]pyrimidin-6-yl]-1,1-dioxo-1,4-dihydro-1lambda*6*-benzo[1,2,4]thiadiazin-7-yl}-methanesulfonamide]
pEC50 (HCV Replicon): > 7.00
pEC50 (NS5B polymerase protein): 5.00 to 6.00

CC(C)CCc1c2n(c(O)c(C3=NS(=O)(=O)c4cc(NS(C)(=O)=O)ccc4N3)c1=O)CCCC2 [Compound 220]
pEC50 (HCV Replicon): 6.00 to 7.00
pEC50 (NS5B polymerase protein): > 7.00

O=S1(=O)NC(c2c(O)c(Br)c3ccccc3c2O)=Nc2ccccc21 [Compound 105, 4-bromo-1,3-dihydroxy-2-(1,1-dioxo-2H-(1,2,4)-benzothiadiazin-3-yl)naphthalene]
pEC50 (HCV Replicon): 5.00 to 6.00
pEC50 (NS5B polymerase protein): 5.00 to 6.00

CS(=O)(=O)Nc1ccc2c(c1)S(=O)(=O)N=C(c1c(O)n3ccccc3c(Cc3ccccc3F)c1=O)N2 [Compound 237, N-{3-[1-(2-Fluoro-benzyl)-4-hydroxy-2-oxo-2H-quinolizin-3-yl]-1,1-dioxo-1,4-dihydro-1lambda′6′-benzo[1,2,4]thiadiazin-7-yl}-methanesulfonamide]
pEC50 (HCV Replicon): > 7.00
pEC50 (NS5B polymerase protein): > 7.00
